Measurements from patent US11053204B2, “Pyrimidinyloxy benzene derivatives as herbicides” (FMC Corporation, priority 2015, dated 2021).

Columns and labels:
Assay type in all cases: in vivo
rice (Oryza sativa) [1] = experiment: Test B flooded paddy test, plant response rating; conditions: 250 g ai/ha; Flood; scale of 0 to 100 where 0 is no effect and 100 is complete control; 13 to 15 days
Method in brief: (§1)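 Under a constant 3 cm flood, test compounds went directly into the paddy water. Following 13 to 15 days of greenhouse growth, treated species and controls were compared by eye.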

[2] = tested on: sedge, umbrella (small-flower umbrella sedge, Cyperus difformis); experiment: Test B flooded paddy test, plant response rating; conditions: 250 g ai/ha; Flood; scale of 0 to 100 where 0 is no effect and 100 is complete control; 13 to 15 days
Method in brief: as §1

[3] = tested on: ducksalad (Heteranthera limosa); experiment: Test B flooded paddy test, plant response rating; conditions: 250 g ai/ha; Flood; scale of 0 to 100 where 0 is no effect and 100 is complete control; 13 to 15 days
Method in brief: as §1

[4] = tested on: barnyardgrass (Echinochloa crus-galli); experiment: Test B flooded paddy test, plant response rating; conditions: 250 g ai/ha; Flood; scale of 0 to 100 where 0 is no effect and 100 is complete control; 13 to 15 days
Method in brief: as §1

rice (Oryza sativa) [5] = experiment: Test C flooded paddy test, plant response rating; conditions: flood, scale 0 to 100
Excerpt: (§2) At the same time, plants selected from these crop and weed species and also chickweed (common chickweed, Stellaria media), buckwheat, wild (wild buckwheat, Polygonum convolvulus), wild mustard (Sinapis arvensis), field poppy (Papaver rhoeas), field violet (Viola arvensis), geranium, cutleaf (cutleaf geranium, Geranium dissectum), Canada thistle (Cirsium arvense), and speedwell (bird's-eye speedwell, Veronica persica), were planted in pots containing Sunshine Redi-Earth® planting medium comprising spaghnum peat moss, vermiculite, starter nutrients and dolomitic limestone and treated with postemergence applications of test chemicals formulated in the same manner. Plants ranged in height from 2 to 18 cm (1- to 4-leaf stage) for postemergence treatments. Treated plants and controls were maintained in a greenhouse for 13 to 15 d, after which time all species were compared to controls and visually evaluated. Plant response ratings, summarized in Table C, are based on a scale of 0 to 100 where 0 is no effect and 100 is complete control. A dash (-) response means no test result.
(§3) Plant species in the flooded paddy test consisted of rice (Oryza sativa), sedge, umbrella (small-flower umbrella sedge Cyperus difformis), ducksalad (Heteranthera limosa), and barnyardgrass (Echinochloa crus-galli) grown to the 2-leaf stage for testing. At time of treatment, test pots were flooded to 3 cm above the soil surface, treated by application of test compounds directly to the paddy water, and then maintained at that water depth for the duration of the test.

[6] = tested on: ducksalad (Heteranthera limosa); experiment: Test C flooded paddy test, plant response rating; conditions: flood, scale 0 to 100
Excerpt: as §2, §3

[7] = tested on: barnyardgrass (Echinochloa crus-galli); experiment: Test C flooded paddy test, plant response rating; conditions: flood, scale 0 to 100
Excerpt: as §2, §3

[8] = tested on: sedge, umbrella (small-flower umbrella sedge Cyperus difformis); experiment: Test C flooded paddy test, plant response rating; conditions: flood, scale 0 to 100
Excerpt: as §2, §3

[9] = tested on: pigweed (Amaranthus retroflexus); experiment: Test A postemergence, visual injury rating
Method in brief: (§4)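 Pre- and postemergence greenhouse screen. Soil: loam + sand. Spray carrier: solvent mixture, non-phytotoxic, with surfactant. Post timing at 1–2 leaves, height 2–10 cm. Readout: visual injury on a 0–100 scale roughly 10 days after application, untreated plants as reference.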

[10] = tested on: galium (catchweed bedstraw, Galium aparine); experiment: Test A postemergence, visual injury rating
Method in brief: as §4

[11] = tested on: giant foxtail (Setaria faberii); experiment: Test A postemergence, visual injury rating
Method in brief: as §4

kochia (Kochia scoparia) [12] = experiment: Test A postemergence, visual injury rating
Method in brief: as §4

corn (Zea mays) = experiment: Test A postemergence, visual injury rating
Method in brief: as §4

[13] = tested on: Italian ryegrass (Lolium multiflorum); experiment: Test A postemergence, visual injury rating
Method in brief: as §4

[14] = tested on: barnyardgrass (Echinochloa crus-galli); experiment: Test A postemergence, visual injury rating
Method in brief: as §4

[15] = tested on: ragweed (common ragweed, Ambrosia elatior); experiment: Test A postemergence, visual injury rating
Method in brief: as §4

[16] = tested on: blackgrass (Alopecurus myosuroides); experiment: Test A postemergence, visual injury rating
Method in brief: as §4

[17] = tested on: wheat (Triticum aestivum); experiment: Test A postemergence, visual injury rating
Method in brief: as §4

[18] = tested on: pigweed (Amaranthus retroflexus); experiment: Test A preemergence, visual injury rating
Method in brief: as §4

[19] = tested on: giant foxtail (Setaria faberii); experiment: Test A preemergence, visual injury rating
Method in brief: as §4

kochia (Kochia scoparia) [20] = experiment: Test A preemergence, visual injury rating
Method in brief: as §4

[21] = tested on: Italian ryegrass (Lolium multiflorum); experiment: Test A preemergence, visual injury rating
Method in brief: as §4

[22] = tested on: barnyardgrass (Echinochloa crus-galli); experiment: Test A preemergence, visual injury rating
Method in brief: as §4

[23] = tested on: ragweed (common ragweed, Ambrosia elatior); experiment: Test A preemergence, visual injury rating
Method in brief: as §4

[24] = 31 g ai/ha, 0 to 100 scale, 0 is no effect, 100 is complete control, approximately 10 days
[25] = 125 g ai/ha, 0 is no effect, 100 is complete control
[26] = 31 g ai/ha, 0 to 100 scale, 0 no effect, 100 complete control
[27] = 125 g ai/ha, 0 to 100 scale (0 no effect, 100 complete control)
[28] = 31 g ai/ha, 0 to 100 scale (0 no effect, 100 complete control)
[29] = 125 g ai/ha, 0 to 100 scale, 0 is no effect, 100 is complete control, approximately 10 days

SMILES: FC(F)(F)COCc1c(Br)cccc1Oc1ncc(Cl)cn1 [Compound 62]
- Plant response rating, Rice (rice (Oryza sativa) [1]): 0
- Plant response rating, Sedge, Umbrella [2]: 90
- Plant response rating, Ducksalad [3]: 100
- Plant response rating, Barnyardgrass [4]: 40
- Rice plant response rating (rice (Oryza sativa) [5]; 16 g ai/ha): 0
- Rice plant response rating (rice (Oryza sativa) [5]; 31 g ai/ha): 0
- Rice plant response rating (rice (Oryza sativa) [5]; 62 g ai/ha): 0
- Rice plant response rating (rice (Oryza sativa) [5]; 125 g ai/ha): 10
- Ducksalad plant response rating ([6]; 16 g ai/ha): 0
- Ducksalad plant response rating ([6]; 31 g ai/ha): 0
- Ducksalad plant response rating ([6]; 62 g ai/ha): 40
- Ducksalad plant response rating ([6]; 125 g ai/ha): 75
- Barnyardgrass plant response rating ([7]; 16 g ai/ha): 0
- Barnyardgrass plant response rating ([7]; 31 g ai/ha): 0
- Barnyardgrass plant response rating ([7]; 62 g ai/ha): 0
- Barnyardgrass plant response rating ([7]; 125 g ai/ha): 20
- Sedge, Umbrella plant response rating ([8]; 16 g ai/ha): 0
- Sedge, Umbrella plant response rating ([8]; 31 g ai/ha): 0
- Sedge, Umbrella plant response rating ([8]; 62 g ai/ha): 60
- Sedge, Umbrella plant response rating ([8]; 125 g ai/ha): 65
- Pigweed plant response rating [9, 24]: 50
- Pigweed plant response rating (0 to 100 scale) [9, 25]: 90
- Galium plant response rating [10, 24]: 30
- Galium plant response rating (0 to 100 scale) [10, 25]: 80
- Foxtail, Giant plant response rating [11, 24]: 0
- Foxtail, Giant plant response rating (0 to 100 scale) [11, 25]: 40
- Kochia plant response rating (kochia (Kochia scoparia) [12]; [24]): 60
- Kochia plant response rating (0 to 100 scale) (kochia (Kochia scoparia) [12]; [25]): 100
- Corn plant response rating (corn (Zea mays); [24]): 0
- Corn plant response rating (0 to 100 scale) (corn (Zea mays); [25]): 30
- Ryegrass, Italian plant response rating [13, 24]: 0
- Ryegrass, Italian plant response rating (0 to 100 scale) [13, 25]: 0
- Barnyardgrass plant response rating [14, 24]: 20
- Barnyardgrass plant response rating (0 to 100 scale) [14, 25]: 40
- Ragweed plant response rating [15, 24]: 0
- Ragweed plant response rating (0 to 100 scale) [15, 25]: 0
- Blackgrass plant response rating [16, 24]: 0
- Blackgrass plant response rating (0 to 100 scale) [16, 25]: 40
- Wheat plant response rating [17, 24]: 0
- Wheat plant response rating (0 to 100 scale) [17, 25]: 0
- Plant response rating, Pigweed [18, 26]: 60
- Pigweed plant response rating [18, 27]: 90
- Plant response rating, Foxtail, Giant [19, 26]: 30
- Foxtail, Giant plant response rating [19, 27]: 100
- Plant response rating, Kochia (kochia (Kochia scoparia) [20]; [26]): 20
- Kochia plant response rating (kochia (Kochia scoparia) [20]; [27]): 70
- Plant response rating, Ryegrass, Italian [21, 26]: 0
- Ryegrass, Italian plant response rating [21, 27]: 10
- Plant response rating, Barnyardgrass [22, 26]: 30
- Barnyardgrass plant response rating [22, 27]: 70
- Plant response rating, Ragweed [23, 26]: 0
- Ragweed plant response rating [23, 27]: 0

SMILES: N#CC(CCCCC(F)(F)F)c1ccccc1Oc1ncc(Cl)cn1 (stereo not shown) [Compound 145]
- Plant response rating, Rice (rice (Oryza sativa) [1]): 30
- Plant response rating, Sedge, Umbrella [2]: 100
- Plant response rating, Ducksalad [3]: 100
- Plant response rating, Barnyardgrass [4]: 50
- Pigweed plant response rating [9, 28]: 90
- Pigweed plant response rating [9, 29]: 100
- Galium plant response rating [10, 28]: 40
- Galium plant response rating [10, 29]: 80
- Foxtail, Giant plant response rating [11, 28]: 50
- Foxtail, Giant plant response rating [11, 29]: 70
- Kochia plant response rating (kochia (Kochia scoparia) [12]; [28]): 70
- Kochia plant response rating (kochia (Kochia scoparia) [12]; [29]): 90
- Corn plant response rating (corn (Zea mays); [28]): 30
- Corn plant response rating (corn (Zea mays); [29]): 50
- Ryegrass, Italian plant response rating [13, 28]: 10
- Ryegrass, Italian plant response rating [13, 29]: 40
- Barnyardgrass plant response rating [14, 28]: 30
- Barnyardgrass plant response rating [14, 29]: 80
- Ragweed plant response rating [15, 28]: 10
- Ragweed plant response rating [15, 29]: 20
- Blackgrass plant response rating [16, 28]: 40
- Blackgrass plant response rating [16, 29]: 60
- Wheat plant response rating [17, 28]: 10
- Wheat plant response rating [17, 29]: 30
- Plant response rating, Pigweed [18, 26]: 100
- Plant response rating, Pigweed [18, 27]: 100
- Plant response rating, Foxtail, Giant [19, 26]: 90
- Plant response rating, Foxtail, Giant [19, 27]: 100
- Plant response rating, Kochia (kochia (Kochia scoparia) [20]; [26]): 0
- Plant response rating, Kochia (kochia (Kochia scoparia) [20]; [27]): 40
- Plant response rating, Ryegrass, Italian [21, 26]: 10
- Plant response rating, Ryegrass, Italian [21, 27]: 50
- Plant response rating, Barnyardgrass [22, 26]: 40
- Plant response rating, Barnyardgrass [22, 27]: 80
- Plant response rating, Ragweed [23, 26]: 0
- Plant response rating, Ragweed [23, 27]: 30

SMILES: N#Cc1cccc(Oc2ncc(Cl)cn2)c1NCCCC(F)(F)F [Compound 146]
- Plant response rating, Rice (rice (Oryza sativa) [1]): 35
- Plant response rating, Sedge, Umbrella [2]: 85
- Plant response rating, Ducksalad [3]: 100
- Plant response rating, Barnyardgrass [4]: 40
- Pigweed plant response rating [9, 28]: 60
- Pigweed plant response rating [9, 29]: 70
- Galium plant response rating [10, 28]: 70
- Galium plant response rating [10, 29]: 100
- Foxtail, Giant plant response rating [11, 28]: 30
- Foxtail, Giant plant response rating [11, 29]: 90
- Kochia plant response rating (kochia (Kochia scoparia) [12]; [28]): 70
- Kochia plant response rating (kochia (Kochia scoparia) [12]; [29]): 100
- Corn plant response rating (corn (Zea mays); [28]): 20
- Corn plant response rating (corn (Zea mays); [29]): 80
- Ryegrass, Italian plant response rating [13, 28]: 0
- Ryegrass, Italian plant response rating [13, 29]: 70
- Barnyardgrass plant response rating [14, 28]: 30
- Barnyardgrass plant response rating [14, 29]: 90
- Ragweed plant response rating [15, 28]: 0
- Ragweed plant response rating [15, 29]: 30
- Blackgrass plant response rating [16, 28]: 30
- Blackgrass plant response rating [16, 29]: 90
- Wheat plant response rating [17, 28]: 20
- Wheat plant response rating [17, 29]: 20
- Plant response rating, Pigweed [18, 26]: 60
- Plant response rating, Pigweed [18, 27]: 100
- Plant response rating, Foxtail, Giant [19, 26]: 80
- Plant response rating, Foxtail, Giant [19, 27]: 100
- Plant response rating, Kochia (kochia (Kochia scoparia) [20]; [26]): 60
- Plant response rating, Kochia (kochia (Kochia scoparia) [20]; [27]): 80
- Plant response rating, Ryegrass, Italian [21, 26]: 0
- Plant response rating, Ryegrass, Italian [21, 27]: 50
- Plant response rating, Barnyardgrass [22, 26]: 20
- Plant response rating, Barnyardgrass [22, 27]: 100
- Plant response rating, Ragweed [23, 26]: 0
- Plant response rating, Ragweed [23, 27]: 0
